According to PubChem BioAssay (NCI):
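Grown in 96-well plates, cells were treated for 48 hours with each compound at five concentrations. Insufficient inhibition: endpoint recorded as highest concentration tested. GI50 marks 50% less growth. TGI: concentration producing complete growth inhibition.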

Experiments:
Experiment in all cases: NCI tumour cell line growth inhibition, 48 h
DMS 114 small cell lung = tested on: DMS 114 small cell lung
LXFL 529 NSCLC = tested on: LXFL 529 NSCLC
XF 498 CNS = tested on: XF 498 CNS
P388 leukemia = tested on: P388 leukemia
P388/ADR leukemia = tested on: P388/ADR leukemia
SN12K1 renal = tested on: SN12K1 renal
RXF-631 renal = tested on: RXF-631 renal

Structure (SMILES) | TGI (DMS 114 small cell lung) [µM] | TGI (LXFL 529 NSCLC) [µM] | TGI (XF 498 CNS) [µM] | TGI (P388 leukemia) [µM] | TGI (P388/ADR leukemia) [µM] | TGI (SN12K1 renal) [µM] | TGI (RXF-631 renal) [µM] | GI50 (DMS 114 small cell lung) [µM]
COc1cc(-c2cccs2)sc1-c1cccs1 | 94.3 | > 100 |  |  |  |  |  | 
COc1cc2c(cc1O)[C@H](C)C(c1ccc(OC)c(OC)c1)O2 (some centres not stated) | 13.8 | 21.5 | 21.8 |  |  |  |  | 
Cc1ccc(C(=O)OC(C(=O)O)C(OC(=O)c2ccc(C)cc2)C(=O)O)cc1 (configuration not stated) (tested in a mixture with another compound) | 12.9 |  | 10.2 | 7.53 | 11.7 | 8.41 |  | 
COc1ccc(C2Oc3cc(OC)c(OC)cc3C2CCl)cc1OC (configuration not stated) | > 100 | > 100 | > 100 |  |  |  |  | 
O=c1[nH]c2cc(Cl)ccc2nc1/C(=N\Nc1ccccc1)C(O)c1ccc(Cl)c(Cl)c1 (configuration not stated) | > 100 | > 100 |  |  |  |  | > 100 | 
CCn1cnc2c(=S)nc(N)[nH]c21 | > 100 | > 100 |  |  |  |  |  | 
CCNC(=O)c1ccc(C)c(N=NN(C)C)c1 |  | > 100 |  |  |  |  |  | 
CCCC/C=C/C=C/C=C/CCCCCCCC(=O)OCC(COC(=O)CCCCCCC/C=C/C1C=CC(CCCC)C(C(=O)O)C1C(=O)O)OC(=O)CCCCCCC/C=C/C=C/C=C/CCCC (configuration not stated) (tested in a mixture with another compound) | 23.1 | 32.8 |  |  |  |  |  | 
O=C1C(Br)=C(Br)C(=O)c2ccc(=O)ccc21 | 39.2 | 31.7 | 43.2 |  |  |  | 39.7 | 
COCCOCOC(CCCCO)c1cc(C)c(O[Si](C)(C)C(C)(C)C)c(C)c1 (configuration not stated) | 10.2 | 22.6 |  |  |  |  |  | 
O=C(Nc1c(O)[nH]c(=S)[nH]c1=O)c1ccccc1 | > 100 | > 100 |  |  |  |  |  | 
O=C1c2ccccc2C(=O)c2c(/C=C\N3CCCCC3)ccnc21 | 4.2 | 15 | 27.2 |  |  |  | > 45.8 | 
O=c1cc(-c2ccc3c(c2)OCO3)[nH]c2cc3c(cc12)OCO3 | 96.1 | > 100 | > 100 |  |  |  |  | 24
COc1cc(C2C(Cl)C(=O)N2n2cnc3ccccc3c2=O)ccc1O (configuration not stated) | > 100 | > 100 |  |  |  |  |  | 
CC1NC(=O)C(C)C(c2ccccc2)N(N=O)C1c1ccccc1 (configuration not stated) | > 100 |  | > 100 | > 89.2 | > 100 | > 100 |  | 
C/C(CN1C(=O)c2ccccc2C1=O)=N\NS(=O)(=O)c1ccc(Cl)cc1 |  | > 100 | > 100 |  |  |  | > 100 | 
